Measured values from PubChem BioAssay (NCI).
Where “and” joins values, the source holds several entries; their conditions need not be identical. Equal values may be shown once.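 These data come from cells grown in 96-well plates and exposed to compound for 48 hours at five concentrations. GI50 is the concentration that inhibits growth by half. The concentration for full growth arrest is given as TGI.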

Columns and labels:
Experiment in all cases: NCI tumour cell line growth inhibition, 48 h
[1] = system: M19-MEL melanoma
[2] = system: LXFL 529 NSCLC
[3] = system: HOP-18 NSCLC
[4] = system: RXF-631 renal
[5] = system: KM20L2 colon
[6] = system: DLD-1 colon
[7] = system: DMS 114 small cell lung
[8] = system: XF 498 CNS
[9] = system: MDA-N
[10] = system: SN12K1 renal
[11] = system: P388/ADR leukemia
[12] = system: P388 leukemia

COC(=O)C1=CC(=O)[C@@H]2CCCC[C@H]12
TGI [1]: > 100 µM
TGI [2]: > 100 µM
TGI [3]: > 100 µM
TGI [4]: > 100 µM
TGI [5]: > 100 µM
TGI [6]: > 100 µM
TGI [7]: > 100 µM

CSC1=Nc2ccccc2N=C(c2ccccc2)C1
TGI [1]: > 100 µM
TGI [8]: > 100 µM
TGI [2]: > 100 µM
TGI [3]: > 100 µM
TGI [4]: > 100 µM
TGI [5]: > 100 µM
TGI [6]: > 100 µM
TGI [7]: 65.5 µM

COc1ccc(-c2cc(=O)c3cc(O)ccc3o2)c(OC)c1OC
TGI [1]: > 100 µM
TGI [8]: > 100 µM
TGI [2]: > 100 µM
TGI [4]: > 100 µM
TGI [5]: 58.1 µM
TGI [6]: > 100 µM
TGI [7]: > 100 µM

COc1ccc2nc3ccccc3c(NCCN(CCCl)CCCl)c2c1
TGI [1]: 3.2 µM
TGI [8]: 1.89 µM
TGI [2]: 2.25 µM
TGI [4]: 4.71 µM
TGI [5]: 2.4 µM
TGI [6]: 4.04 µM

NC(=O)c1csc(-c2ccc(CO)o2)n1
TGI [9]: > 100 µM

COC(=O)C1=CCC2c3[nH]c4ccccc4c3CCN2C1 (stereo not drawn)
TGI [1]: > 354 µM
TGI [2]: > 354 µM
TGI [5]: > 354 µM
TGI [6]: > 354 µM
TGI [7]: > 354 µM

COc1cc2c(cc1-c1coc3cc(O)ccc3c1=O)OCO2
TGI [9]: > 100 µM

CC1=C(C(=O)Nc2ccc(C)cc2)C(c2cccc([N+](=O)[O-])c2)C(C(=O)Nc2ccc(C)cc2)=C(C)N1
TGI [1]: 63.4 µM
TGI [8]: 50.7 µM
TGI [2]: > 100 µM
TGI [3]: 80.2 µM
TGI [4]: 91.3 µM
TGI [5]: 48 µM
TGI [6]: > 100 µM
TGI [7]: 74.2 µM

CCOC(=O)C(=O)C(C#N)c1ccc(Cl)cc1 (stereo not drawn)
TGI [1]: > 100 µM
TGI [8]: > 100 µM
TGI [2]: > 100 µM
TGI [5]: > 100 µM
TGI [6]: > 100 µM
TGI [7]: > 100 µM

CC1=CC[C@@H](C(C)(C)O)C[C@@H]1O
TGI [1]: > 5000 µM
TGI [8]: > 5000 µM
TGI [2]: > 5000 µM
TGI [4]: > 5000 µM
TGI [5]: > 5000 µM
TGI [6]: > 5000 µM
TGI [7]: > 5000 µM

Cc1c(Cl)c(C)c(Cl)c(O)c1Cl
TGI [9]: 99.2 µM

N#C/C(=C\c1ccc[nH]1)C(=O)c1ccccc1
TGI [1]: > 100 µM
TGI [2]: > 100 µM
TGI [3]: > 100 µM
TGI [4]: > 100 µM
TGI [5]: > 100 µM
TGI [6]: > 100 µM
TGI [7]: > 100 µM

N#Cc1cccc(C2C(=O)c3ccc(C(=O)c4ccc5c(c4)C(=O)N(c4ccc(Oc6ccc(N7C(=O)c8ccc(C(=O)c9ccc%10c(c9)C(=O)N(c9cccc(C#N)c9)C%10=O)cc8C7=O)cc6)cc4)C5=O)cc3C2=O)c1 (stereo not drawn)
TGI [1]: > 100 µM
TGI [8]: > 100 µM
TGI [2]: > 100 µM
TGI [4]: > 100 µM
TGI [5]: > 100 µM
TGI [6]: > 100 µM
TGI [7]: > 100 µM

CC1(C)C(CC(=O)O)CCCC1CC(=O)O (stereo not drawn)
TGI [9]: > 100 µM

Clc1ccccc1C1SCc2nc3ccccc3n21 (stereo not drawn)
TGI [1]: > 100 µM
TGI [8]: 87.2 µM
TGI [2]: > 100 µM
TGI [6]: > 100 µM

COc1cc2c(cc1[N+](=O)[O-])C(=O)C(Br)(Br)CCC2
TGI [9]: 9.46 µM

O=C(O)c1ccc(/C=N/N=C2c3ccccc3-c3ccccc32)cc1
TGI [9]: > 100 µM

O=C(O)CCC1c2[nH]c3ccccc3c2CCN1Cc1ccccc1 (stereo not drawn)
TGI [1]: > 100 µM
TGI [2]: > 100 µM
TGI [3]: > 100 µM
TGI [4]: > 100 µM
TGI [5]: > 100 µM
TGI [6]: > 100 µM
TGI [7]: > 100 µM

CN1C2(c3ccccc3)C(C(=O)c3ccccc3)=C(C(=O)c3ccccc3)C1(c1ccccc1)c1c(-c3ccccc3)sc(-c3ccccc3)c12
TGI [1]: > 100 µM
TGI [2]: > 100 µM
TGI [5]: > 100 µM
TGI [6]: > 100 µM
TGI [7]: > 100 µM

CC(=O)Nc1ccc(C2=N/C(=C\c3ccc(Cl)cc3)C(=O)O2)cc1
TGI [1]: 57.5 µM
TGI [8]: 61.4 µM
TGI [2]: 56.9 µM
TGI [3]: > 100 µM
TGI [5]: > 100 µM
TGI [6]: > 100 µM

COC1C(=O)CCC2(CO2)C1(O)C1(C)OC1CC=C(C)C (stereo not drawn)
TGI [9]: > 100 µM

C[C@]12CCc3nn(-c4ccccc4)nc3C1CC[C@@H]1C2CC[C@]2(C)C(=O)CCC12 (stereo partly drawn)
TGI [1]: > 100 µM
TGI [2]: > 100 µM
TGI [3]: > 100 µM
TGI [5]: > 100 µM
TGI [6]: > 100 µM
TGI [7]: > 100 µM

O=C(Cc1nc2ccccc2o1)C(=O)Nc1ccc(Cl)cc1Cl
TGI [1]: > 100 µM
TGI [2]: > 100 µM
TGI [3]: > 100 µM
TGI [5]: > 100 µM
TGI [6]: > 100 µM
TGI [7]: > 100 µM

CCC(C)C1NC(=O)C(NC(=O)C(CC(C)C)N(C)C(=O)[C@@H]2CC(O)CN2C(=O)[C@H](C)O)C(C)OC(=O)[C@H](Cc2ccc(OC)cc2)N(C)C(=O)[C@@H]2CCCN2C(=O)[C@H](CC(C)C)NC(=O)C(C)C(=O)[C@H](C(C)C)OC(=O)CC1O (stereo partly drawn)
GI50 [9]: 0.0292 µM
TGI [9]: 1.07 µM and 1.11 µM

CC[As](CC)SCC1OC(OC(C)=O)C(OC(C)=O)C(OC(C)=O)C1OC(C)=O (stereo not drawn)
TGI [1]: 27.5 µM
TGI [8]: 32 µM
TGI [2]: 3.77 µM
TGI [3]: 29.6 µM
TGI [4]: 6.64 µM
TGI [5]: 32.7 µM
TGI [6]: 30.9 µM
TGI [7]: 17.6 µM

Fc1ccc(N=C2C=CC(=Nc3ccc(F)cc3)c3ccccc32)cc1
TGI [1]: > 100 µM
TGI [8]: > 100 µM
TGI [2]: > 100 µM
TGI [3]: > 100 µM
TGI [5]: > 100 µM
TGI [6]: > 100 µM

COc1ccc([C@@H]2OC(=O)C3C2C(=O)O[C@H]3c2ccc(OC)cc2)cc1 (stereo partly drawn)
TGI [1]: > 100 µM
TGI [8]: > 100 µM
TGI [2]: > 100 µM
TGI [3]: > 100 µM
TGI [4]: > 100 µM
TGI [5]: > 100 µM
TGI [6]: > 100 µM
TGI [7]: > 100 µM

Nc1nc(N)c2c(n1)CCC(S(=O)(=O)c1ccc3ccccc3c1)C2 (stereo not drawn)
TGI [9]: > 100 µM

CCc1ncc(CO)n1Cc1cccc2ccccc12
TGI [9]: > 100 µM

N#CCCN(c1ccc(C=O)cc1)S(=O)(=O)c1ccccc1
TGI [1]: > 100 µM
TGI [8]: > 100 µM
TGI [2]: > 100 µM
TGI [5]: > 100 µM
TGI [7]: > 100 µM

CC1[C@@H]2CC=C3[C@H]4CCC5Cc6nc7c(nc6C[C@@]5(C)C4CC(=O)[C@]32CO[C@]12OC(C)(C)CC2O)CC1CC[C@@H]2C3=C[C@H]4O[C@@]5(O[C@@](C)(CO)C[C@@H]5O)C(C)[C@@]4(O)[C@]3(C)[C@@H](O)CC2[C@]1(C)C7 (stereo partly drawn)
TGI [10]: 0.397 µM
GI50 [1]: 0.617 µM and 2.48 µM
TGI [1]: > 3.65 µM
TGI [11]: 0.0109 µM
GI50 [8]: 0.000725 µM and 0.00479 µM
TGI [8]: 0.424 µM and 1.8 µM
TGI [12]: 0.000638 µM
GI50 [2]: 0.000384 µM
TGI [2]: 0.00244 µM
TGI [3]: 0.393 µM and > 3.65 µM
GI50 [4]: 0.000312 µM
TGI [4]: 0.00275 µM
GI50 [5]: 0.00119 µM and 0.00294 µM
TGI [5]: 0.0349 µM and 0.0754 µM
GI50 [9]: 0.00389 µM
TGI [9]: 0.0303 µM
GI50 [6]: 0.0416 µM and 0.0575 µM
TGI [6]: 0.709 µM and > 3.65 µM
TGI [7]: 0.0424 µM

CC#CC#C/C(=C/C=CC(=O)OC)SC
TGI [9]: > 100 µM

CCN(CC)C(=O)CC12CCCCC1=Nc1ccccc12 (stereo not drawn)
TGI [1]: > 100 µM
TGI [8]: > 100 µM
TGI [2]: > 100 µM
TGI [3]: > 100 µM
TGI [4]: > 100 µM
TGI [5]: > 100 µM
TGI [6]: > 100 µM

O=C(CC(=O)c1cccc([N+](=O)[O-])c1)C(=O)Nc1ccccc1
TGI [1]: > 100 µM
TGI [8]: > 100 µM
TGI [2]: > 100 µM
TGI [3]: > 100 µM
TGI [4]: > 100 µM
TGI [5]: > 100 µM
TGI [6]: > 100 µM
TGI [7]: > 100 µM

CN(C)c1ccc(/C=c2/c3cc(O)ccc3n3c2cc(-c2ccccc2)[n+]3C)cc1
TGI [9]: 1.96 µM

Cc1ccccc1-n1c(CCl)nc2ccc(Br)cc2c1=O
TGI [1]: 19.9 µM
TGI [2]: 18.5 µM
TGI [3]: 55.3 µM
TGI [4]: 42.1 µM
TGI [5]: 39.9 µM
TGI [6]: 16.6 µM
TGI [7]: 20.5 µM

O=C(CC1(O)C(=O)Nc2ccccc21)c1ccccc1O (stereo not drawn)
TGI [1]: > 100 µM
TGI [8]: > 100 µM
TGI [2]: > 100 µM
TGI [4]: > 100 µM
TGI [5]: > 100 µM
TGI [6]: > 100 µM
TGI [7]: > 100 µM

CCc1ccccc1NC(=O)C(=O)C1C(=O)N(c2ccccc2)N=C1N (stereo not drawn)
TGI [1]: > 100 µM
TGI [8]: > 100 µM
TGI [2]: > 100 µM
TGI [3]: > 100 µM
TGI [4]: > 100 µM
TGI [5]: > 100 µM
TGI [6]: > 100 µM
TGI [7]: > 100 µM

CC(C)C1=CC2=C(C(=O)C1=O)C13CCCC(C)(C)C1CC2OC3=O (stereo not drawn)
TGI [9]: 37.2 µM

CC1C(O)=C(O)c2ccccc2N1O (stereo not drawn)
TGI [1]: > 100 µM
TGI [8]: > 100 µM
TGI [2]: > 100 µM
TGI [3]: > 100 µM
TGI [4]: > 100 µM
TGI [5]: > 100 µM
TGI [6]: > 100 µM

CCn1ncc(N=O)c1N
TGI [9]: > 100 µM

CCN(/N=C1\CC2C=CCN(C2)C(=O)Cc2c1[nH]c1ccccc21)S(=O)(=O)c1ccc(C)cc1 (stereo not drawn)
TGI [1]: > 100 µM
TGI [8]: > 100 µM
TGI [4]: > 100 µM
TGI [5]: > 100 µM
TGI [6]: > 100 µM
TGI [7]: > 100 µM
